# In patent publication US10745357B2, “Process for preparing quinolin-2-yl-phenylamine derivatives and their salts” (priority 2016, dated 2020):
# How the values were obtained:
# [1] = Aqueous solubility in four aqueous buffers with distinct pH values; assay type: physicochemical; settings: for solubility at 15 min / solubility at 1 h: thermodynamic from solid; for Solubility in aqueous solutions (in words): summary of the four buffers
# Experimental: The solubility properties of the generated solid states were studied in four different aqueous buffers with distinct pH values. Approximately 250 mg of each sample was mixed with 2.5 ml solvent and stirred.
# [2] = Hygroscopicity by Dynamic Vapor Sorption Analysis (DVS); assay type: physicochemical; settings: for Reversibility of water uptake / weight increase / Humidity absorption (in words) / Weight increase (hygroscopicity) / Changes of the crystalline form associated with water uptake: DVS; for Humidity absorption (in words): 0 to 95% RH; for Weight increase (hygroscopicity): humidity 0 to 95% RH, maximum
# Experimental: The hygroscopicity was determined by Dynamic Vapor Sorption Analysis (DVS). Approximately 200 mg of each solid state were weight on a sample plate and subjected to the apparatus. The humidity inside was varied in a range from 0 to 95% RH and the mass change (dm [%]) of the samples measured continuously.
# [3] = phase I trials; dose levels up to 200 mg; without clinically significant abnormal results; cited from earlier work
# [4] = tested on: HIV; settings: preclinical; lasted for several weeks after cessation of treatment; cited from earlier work
# [5] = tested on: normal cellular splicing; settings: cited from earlier work
# [6] = tested on: HIV-1 replication; settings: prevents export of viral RNA from nucleus to cytoplasm in infected cells; cited from earlier work
# [7] = aqueous buffer, fassif, FaSSiF (SIF-powder), 15 min
# [8] = aqueous buffer, fassif, FaSSiF (SIF-powder), 1 h
# [9] = aqueous buffer, pH 2.2, simulated gastric fluid, 0.01N HCl pH ~2.2, 15 min
# [10] = aqueous buffer, pH 2.2, simulated gastric fluid, 0.01N HCl pH ~2.2, 1 h
# [11] = aqueous buffer, pH 4.5, aqueous buffer, 20 mM Na-acetate pH 4.5, 15 min
# [12] = aqueous buffer, pH 4.5, aqueous buffer, 20 mM Na-acetate pH 4.5, 1 h
# [13] = aqueous buffer, pH 6.8, aqueous buffer, 50 mM KH2PO4 pH 6.8, 15 min
# [14] = aqueous buffer, pH 6.8, aqueous buffer, 50 mM KH2PO4 pH 6.8, 1 h
Compound,Solubility in aqueous solutions (in words) [1],Reversibility of water uptake / weight increase [2],Humidity absorption (in words) [2],Weight increase (hygroscopicity) [2],Relative weight change (dm) ([2]; RH 40% (start)) [%],Relative weight change (dm) ([2]; RH 40 → 0% (first step to 0)) [%],Relative weight change (dm) ([2]; RH 95 → 40% (desorption)) [%],Relative weight change (dm) ([2]; RH → 0% (second step to 0)) [%],Relative weight change (dm) ([2]; RH → 35% (final step)) [%],Relative weight change (dm) ([2]; RH → 75%) [%],Relative weight change (dm) ([2]; RH → 95%) [%],"solubility at 15 min [1, 7] [µg/mL]","solubility at 1 h [1, 8] [µg/mL]","solubility at 15 min [1, 9] [µg/mL]","solubility at 1 h [1, 10] [µg/mL]","solubility at 15 min [1, 11] [µg/mL]","solubility at 1 h [1, 12] [µg/mL]","solubility at 15 min [1, 13] [µg/mL]","solubility at 1 h [1, 14] [µg/mL]",Changes of the crystalline form associated with water uptake [2],other results
"FC(F)(F)Oc1ccc(Nc2ccc3cccc(Cl)c3n2)cc1.O=S(=O)(O)O [H2SO4, (8-chloro-quinolin-2-yl)-(4-trifluoromethoxyphenyl)-amine]",first-rate solubility,reversible,low hygroscopicity,≤ 3.2%,0,−0.11,0.03,−0.14,−0.04,0.32,3.2,,,,,,,,,,"solubility at 15 min ([1]; aqueous buffer, 20 mM Na-acetate pH 4.5, 15 min): 93 µg/mL; solubility at 1 h ([1]; aqueous buffer, 20 mM Na-acetate pH 4.5, 1 h): 139 µg/mL; solubility at 15 min ([1]; aqueous buffer, 50 mM KH2PO4 pH 6.8, 15 min): 35 µg/mL; solubility at 1 h ([1]; aqueous buffer, 50 mM KH2PO4 pH 6.8, 1 h): 114 µg/mL; solubility at 15 min ([1]; simulated gastric fluid, 0.01N HCl pH ~2.2, 15 min): 89 µg/mL; solubility at 1 h ([1]; simulated gastric fluid, 0.01N HCl pH ~2.2, 1 h): 152 µg/mL; solubility at 15 min ([1]; FaSSiF (SIF-powder), 15 min): 109 µg/mL; solubility at 1 h ([1]; FaSSiF (SIF-powder), 1 h): 157 µg/mL"
"Cl.FC(F)(F)Oc1ccc(Nc2ccc3cccc(Cl)c3n2)cc1 [HCl, (8-chloro-quinolin-2-yl)-(4-trifluoromethoxyphenyl)-amine]",first-rate solubility,irreversible,,,0,−0.11,7.8,2.8,5.1,1.7,14.3,111,198,116,147,74,136,68,104,significant changes,
"FC(F)(F)Oc1ccc(Nc2ccc3cccc(Cl)c3n2)cc1.O=S(=O)(O)c1ccccc1 [besylate, (8-chloro-quinolin-2-yl)-(4-trifluoromethoxyphenyl)-amine]",,reversible,low hygroscopicity,up to 1.9%,0,−0.04,1.1,−0.09,1.0,0.19,1.9,77,45,23,32,24,16,3,7,only minor,
"FC(F)(F)Oc1ccc(Nc2ccc3cccc(Cl)c3n2)cc1 [free base, (8-chloro-quinolin-2-yl)-(4-trifluoromethoxy-phenyl)-amine]",,,absorbs more or less not any humidity,,0,0,0.03,0.02,0.02,0.02,0.15,64,61,,,,,,,,"Solubility ([1]; 0.01N HCl pH ~2.2, 15 min): 3 µg/mL; Solubility ([1]; 0.01N HCl pH ~2.2, 1 h): 4 µg/mL; Solubility in aqueous solutions with different pH-values ([1]; compound from reworked WO 2010/143169 procedure, recrystallized, pH values simulating physiological conditions): virtual insolubility; Tolerability [3]: well tolerated; Reduction of viral load [4]: sustained reduction of viral load; Selectivity / effect on normal cellular splicing [5]: doesn't affect normal cellular splicing; HIV replication [6]: inhibits HIV replication"
"FC(F)(F)Oc1ccc(Nc2ccc3cccc(Cl)c3n2)cc1 [hemi-edisylate, (8-chloro-quinolin-2-yl)-(4-trifluoromethoxyphenyl)-amine]",,irreversible,,,0,,,,,,,,,,,48,50,18,23,significant changes,"Solubility ([1]; 0.01N HCl pH ~2.2, 15 min): 75 µg/mL; Solubility ([1]; 0.01N HCl pH ~2.2, 1 h): 65 µg/mL; Relative weight change (dm) ([2]; RH 40 → 0% (first step to 0), listed as Hemiedisylate salt): −0.65%; Relative weight change (dm) ([2]; RH 95 → 40% (desorption), listed as Hemiedisylate salt): 3.5%; Relative weight change (dm) ([2]; RH → 0% (second step to 0), listed as Hemiedisylate salt): 0.4%; Relative weight change (dm) ([2]; RH → 35% (final step), listed as Hemiedisylate salt): 2.9%; Relative weight change (dm) ([2]; RH → 75%, listed as Hemiedisylate salt): 0.74%; Relative weight change (dm) ([2]; RH → 95%, listed as Hemiedisylate salt): 36.2%"
"Cc1ccc(S(=O)(=O)O)cc1.FC(F)(F)Oc1ccc(Nc2ccc3cccc(Cl)c3n2)cc1 [tosylate, (8-chloro-quinolin-2-yl)-(4-trifluoromethoxyphenyl)-amine]",,,absorbs more or less not any humidity,,0,−0.05,−0.03,−0.09,−0.05,0.05,0.24,30,13,6,10,,3,,,,
